# Laboratory results: US8592419B2, “Ceramides and apoptosis-signaling ligand” (MUSC Foundation for Research Development, priority 2004, dated 2013)
# What was measured:
# [1] = system: five different PCa cell lines; assay: MTS cell viability assay, LCL204 treatments; format: cell-based, human; conditions: 24 hours treatment
# Procedure: Cell lines. The human PCa cell lines DU145, LNCaP, DuPro, and PC-3 were purchased from ATCC (Manassas, Va., USA), and PPC-1 cells were from Dr. Yi Lu at the University of Tennessee (Memphis, Tenn.). All cells were cultured in RPMI 1640 (Mediatech Inc.; Herndon, Va., USA) supplemented with 10% heat-inactivated BGS (Hyclone; Logan, Utah, USA). Cells were maintained in 5% CO2 at 37° C. All experiments were performed in RPMI 1640 supplemented with 2% heat-inactivated BGS.
# (§1) MTS cytotoxicity assays for LCL204 treatments. Cell viability was determined using the CellTiter 96 AQueous One Solution Cell Proliferation Assay (Promega; Madison, Wis., USA). 1×10^4 cells per well were seeded in 96-well plates overnight. The next day media was removed and replaced with either 100 μl media with vehicle control or media containing LCL204 at desired concentrations. Assays were carried out according to manufacturer's instruction as previously described (60). For experiments using enzyme inhibitors and LCL204, media was removed and replaced with 50 μl media containing vehicle only or indicated inhibitor. Cells were pretreated 1 hour at 37° C. before adding 50 μl media containing vehicle, inhibitor only, LCL204 only (2× concentration), or a combination. The remainder of the assay was carried out as described above.
# DU145 cells = assay: MTS cell viability assay in DU145 cells; format: cell-based, human; conditions: in vitro
# Procedure: as §1
# [2] = system: mitochondria membrane potential in DU145 cells; assay: Mitochondria membrane potential measurement (JC-1); format: cell-based, human; conditions: 5 μM
# Procedure: Mitochondria membrane potential measurement. Cells were seeded at a density of 7.49×10^5 cells per plate in 60 mm plates overnight. The next day, media was replaced with media containing vehicle control or LCL204 (5 μM). Cells were lifted using Cell Stripper (Mediatech), washed twice in PBS, and resuspended in 3 ml 1×JC-1 reagent solution (dissolved in medium). Samples were incubated at 37° C. for 15 minutes, washed twice with PBS, and resuspended in 0.5 ml growth medium before analysis by flow cytometry using a Beckton-Dickinson FACSCalibur (590 nm/527 nm emission). A minimum of 10,000 events were scored for each sample.
# LAMP-1 = assay: Immunoblot of LAMP-1; format: cell-based, human; conditions: DU145 cells, 12 hours LCL204
# Procedure: (§2) Immunoblot analysis. Cells were seeded in 60mm plates as described above and treated accordingly. Cells were lifted by gently scraping the plates, washed once with ice cold PBS and then lysed in lysis buffer (PBS, 1% Triton X-100, 10% glycerol) containing protease inhibitors pepstatin A (0.5 μg/ml), leupeptin (0.5 μg/ml), aprotinin (5 μg/ml), and PMSF (100 μg/ml) for 10 minutes on ice. Insoluble material was removed by centrifugation at 14,000 rpm for 15 minutes at 4° C. The supernatants were then supplemented with SDS at a final concentration of 2% and stored at −80° C. Protein concentrations were determined using the DC Protein Assay (BioRad Laboratories; Hercules, CA, USA) according to the manufacturer's instructions. 50 μg of protein per sample (unless otherwise indicated) were separated on NuPAGE 4-12% Bis-Tris gels (Invitrogen; Carlsbad, CA, USA) and transferred to nitrocellulose membranes (BioRad). Following transfer, membranes were blocked for 1 hour at room temperature in Tris-buffered saline (TBS) containing 0.1% Tween-20 and 5% nonfat dry milk and incubated overnight at 4° C. with primary antibody at a dilution of 1:2,000(actin), 1:1,000(cytochrome c, COX IV, Bax, Bak, p53, p38, P-p38), 1:500(P-JNK, JNK), 1:250 (AC, p73), or 1:400(LAMP-1, cathepsin B). Overnight incubations were performed in 5% milk in TBS-Tween. […]
# Bak = Bak protein level and Bak foci (Western blot, confocal microscopy); format: cell-based, human
# Procedure: (§3) Immunoblot analysis. Cells were seeded in 60mm plates as described above and treated accordingly. Cells were lifted by gently scraping the plates, washed once with ice cold PBS and then lysed in lysis buffer (PBS, 1% Triton X-100, 10% glycerol) containing protease inhibitors pepstatin A (0.5 μg/ml), leupeptin (0.5 μg/ml), aprotinin (5 μg/ml), and PMSF (100 μg/ml) for 10 minutes on ice. Insoluble material was removed by centrifugation at 14,000 rpm for 15 minutes at 4° C. The supernatants were then supplemented with SDS at a final concentration of 2% and stored at −80° C. Protein concentrations were determined using the DC Protein Assay (BioRad Laboratories; Hercules, CA, USA) according to the manufacturer's instructions. 50 μg of protein per sample (unless otherwise indicated) were separated on NuPAGE 4-12% Bis-Tris gels (Invitrogen; Carlsbad, CA, USA) and transferred to nitrocellulose membranes (BioRad). Following transfer, membranes were blocked for 1 hour at room temperature in Tris-buffered saline (TBS) containing 0.1% Tween-20 and 5% nonfat dry milk and incubated overnight at 4° C. with primary antibody at a dilution of 1:2,000(actin), 1:1,000(cytochrome c, COX IV, Bax, Bak, p53, p38, P-p38), 1:500(P-JNK, JNK), 1:250 (AC, p73), or 1:400(LAMP-1, cathepsin B). Overnight incubations were performed in 5% milk in TBS-Tween. Following overnight incubation, membranes were washed three times for 10 minutes each in TBS-Tween and incubated for 1 hour at room temperature with secondary antibody in 5% milk TBS-Tween at a dilution 1:5,000 (goat anti-mouse IgG) or 1:50,000 (goat anti-rabbit). Membranes were then washed three times more and incubated for 5 minutes at room temperature with Super Signal HRP substrate (Pierce Biotechnology Inc.; Rockford, IL, USA).
# Confocal Microscopy and Immunocytochemistry. DU145 cells were grown in 4.3 cm^2 chamber slides (Nalge Nunc) and transfected with YFPmito alone or with the dominant-negative inhibitor of Drp1(K38A) (64) using FuGENE6 (Roche; Indianapolis, IN) according to the manufacturer's instructions using 1 μg of total DNA per chamber. 24 hr after transfection and 30 min prior to treatment with 15 μM LCL204, cells were exposed to zVAD-fmk (50 μM). The slides were fixed with 4% paraformaldehyde for 20 min then permeabilized with 0.2% Triton X-100 for 15 min, followed by blocking with 4% bovine serum albumin for 45 min at RT. Cells were probed with rabbit polyclonal 2-14 anti-Bak antibody (1:5000; BioChem) for 2 hr then stained with goat anti-rabbit Alexa Fluor 543 antibodies (1:250; Molecular Probes) for 45 min. After washing, cells were imaged using the 63x objective of an LSM 510 Zeiss confocal microscope.
# Bax = assay: Immunoblot of Bax; format: cell-based, human; conditions: PC-3 cells, 10 μM
# Procedure: as §2
# PUMA = assay: Immunoblot of PUMA; format: cell-based, human; conditions: for PUMA up-regulation: 10 μM
# Procedure: as §3
# p53 = assay: Immunoblot of p53; format: cell-based, human; conditions: DU145 cells, 10 μM
# Procedure: as §2
# JNK = assay: Immunoblot of phosphorylated JNK; format: cell-based, human; conditions: DU145 and PC-3 cells
# Procedure: as §2
# p38 MAPK = assay: Immunoblot of phosphorylated p38 MAPK; format: cell-based, human; conditions: PPC-1/pcDNA3 vector control cells
# Procedure: as §2
# [3] = system: cFLIPS, Survivin, cIAP-1, RIP, Caspase 8; assay: Anti-apoptotic proteins and caspase 8 after LCL204; conditions: DU145 cells
smiles,measurement,setting,value
"CCCCCCCCCCCCCCN[C@H](CO)[C@H](O)c1ccc([N+](=O)[O-])cc1.Cl [LCL204, (1R,2R) D-threo-2-N-Tetradecylamino-1-(4′-nitrophenyl)-1,3-propandiol hydrochloride]",cell death,[1],concentration-dependent cell death in the micromolar range
same,potency as inducer of cell death compared with B13,DU145 cells,much more potent inducer of cell death than B13
same,earliest observed decrease in ΔΨm,[2],2 h
same,LAMP-1 expression,LAMP-1,increases
same,Bak protein levels over time,"Bak; DU145 and PC-3 cells, 10 μM, 12 hours",accumulated Bak protein
same,Bak protein levels versus concentration,"Bak; DU145 cells, 12-hour treatment",concentration-dependent up-regulation
same,Bak foci on the mitochondria membrane,"Bak; DU145 cells, 20 hours, confocal microscopy",formation of Bak foci was detected
same,Bak and p73 levels,"Bak; PPC-1/pcDNA3 cells, 7.5 μM, 5 hours",up-regulation of both Bak and p73 levels
same,Bax protein levels,Bax,unaffected
same,PUMA up-regulation,PUMA; DU145 cells,up-regulated in DU145 cells after eight hours
same,PUMA up-regulation,PUMA; PC-3 cells,earlier (four hours) in PC-3 cells
same,time of PUMA induction,"PUMA; PPC-1/pcDNA3 control cells, 7.5 μM",90 min
same,p53 induction,p53,induced p53 in DU145 cells after four hours
same,phosphorylation and activation of JNK,JNK,beginning as early as three hours
same,time by which p38 MAPK phosphorylation was induced,p38 MAPK,≤ 90 min
same,Caspase 8,[3],unaffected
same,anti-apoptotic proteins,[3],"down-regulation of anti-apoptotic proteins cFLIPS, Survivin, cIAP-1, and RIP"
